Procaspase-6 cleavage data for one compound are collected here from US20220184172A1, “AMPK/CASPASE-6 AXIS CONTROLS LIVER DAMAGE IN NONALCOHOLIC STEATOHEPATITIS” (The Regents of the University of California, priority 2019, published 2022).

The subject of assay [1] is procaspase-6 cleavage in primary hepatocytes. Put plainly: Procaspase-6 cleavage induced by TNFα and CHX in primary hepatocytes (IB). Format: cell-based, mice. The note with it: 40 μM pretreatment 1 hr, then 30 μg/ml CHX and 50 ng/ml TNFα 2 hrs. The source says:
FIGS. 5A-5K. AMPK phosphorylates caspase-6 to inhibit its cleavage and activation. FIG. 5A. […] IB analysis of cell lysates. n=3. Mean±SD. *, P<0.05, two-way ANOVA. FIG. 5B. […] Cell lysates were subject to caspase-6 activity assay. Mean±SD. *, P<0.05. FIG. 5C. Caspase-6 Ser^257 locates within AMPK substrate motif. FIG. 5C. discloses SEQ ID NOS 57-63, respectively, in order of appearance. FIG. 5D. In vitro kinase assay using recombinant caspase-6, and recombinant AMPKα1β1γ1 or AMPKα2β1γ1 active kinase. FIG. 5E. Alignment of caspase-6 sequence. FIG. 5E. discloses SEQ ID NOS 64-67, respectively, in order of appearance. FIG. 5F. HEK293T cells overexpressing caspase-6-myc WT, S^257A, S^257D or S^257E mutant were treated with 10 μg/ml CHX and 25 ng/ml TNFα for 2 hrs. IB analysis of cell lysates. FIGS. 5G-5J. C57BL/6J mice were fed CD-HFD for 6 weeks, followed by intraperitoneally injection of 25 mg/kg A-769662 or vehicle daily for 2 weeks while continuous CD-HI-D. Mice were sacrificed 6 hrs after last injection. FIG. 5G. IB analysis of liver lysates. n=5. FIG. 5H. Liver lysates were subject to caspase-6 activity assay. n=7. FIG. 5I. Liver sections stained as indicated therein (aCasp6 and DAPI); in the merged image sections, the different stains correspond to the grayscale shades as indicated in the single stained images to the left. Scale bar=50 μm. […] Quantification of aCasp6 staining per field in FIG. 5I. n=7. […]

Assay [2] has as its system procaspase-6 cleavage in HepG2 cells. Put plainly: Procaspase-6 cleavage induced by TNFα and CHX in HepG2 cells (IB). Format: cell-based. The settings on record: 40 μM pretreatment 1 hr, then 30 μg/ml CHX and 50 ng/ml TNFα 2 hrs. How it is done:
FIGS. 15A-15F. AMPK phosphorylates caspase-6 and inhibits its cleavage. FIG. 15A. Caspase-6 activity was measure in the lysates from isolated primary hepatocytes treated with vehicle or 250 μM BSA-conjugated palmitic acid (PA) or 50 ng/ml TNFα for 2 hrs. Data are shown as mean±SD. *, P<0.05, Student's unpaired t test. FIG. 15B. HepG2 cells were pretreated with 40 μM A-769662 for 1 hr, and then treated with 30 μg/ml cycloheximide (CHX) and 50 ng/ml TNFα for 2 hrs. Cell lysates were subject to immunoblot (IB) analysis. FIG. 15C. In vitro kinase assay using purified caspase-6-mycexpressed in HEK293T cells, and recombinant AMPKα1β1γ1 active kinase. FIGS. 15D-15E. Flox and LAKO mice were fed with CD-HFD for 8 weeks. After 6 weeks of CD-HFD feeding, mice were intraperitoneally injected with 25 mg/kg A-769662 or vehicle daily for 2 weeks along with continuous CD-HFD feeding. FIG. 15D. […] Quantification of IB analysis in FIG. 15D. n=3. *, P<0.05, two-way ANOVA. […] Quantification of IB analysis in FIG. 5K. n=3. […]
Western blot was performed as previously described(11). […] Supernatants were collected and analyzed with BCA (Thermo Scientific) to quantify protein content. […] Individual proteins were detected with specific antibodies and visualized on film using horseradish peroxidase-conjugated secondary antibodies (Fisher Scientific) and SuperSignal West Pico PLUS Chemilunminescent Substrate (Thermo Scientific).

Take `N#Cc1c(O)c2c(-c3ccc(-c4ccccc4O)cc3)csc2[nH]c1=O` [A-769662]: the procaspase-6 cleavage result in assay [1] and in assay [2] was “significantly inhibited” each time.
